Results on 26 compounds are retold here after patent publication US20250049036A1 (priority 2021, published 2025).

Experiment [1] has as its system Colletotrichum capsici. Briefly: Colletotrichum capsici (anthracnose) mycelial radial growth on potato dextrose agar. Format: cell-based. As to conditions: Colletotrichum truncatum, 168 h, 25° C., seven days, read-out: control compared to the untreated check. Here is the method: The compounds were dissolved in 0.3% dimethyl sulfoxide and then added to potato dextrose agar medium just prior to dispensing it into petri dishes. 5 mL medium, with the compound in the desired concentration, was dispensed into 60 mm sterile petri-plates. After solidification, each plate was seeded with a 5 mm size mycelial disc taken from the periphery of an actively growing virulent culture plate. The plates were incubated in growth chambers at 25° C. temperature and 60% relative humidity for seven days and the radial growth was measured and compared to the one of the untreated control.

Experiment [2] relates to Botrytis cinerea. As to the kind of experiment: Botrytis cinerea liq. (BOTRCI) spore growth inhibition in liquid medium, 96-well microtiter plate, OD 405 nm. Type of experiment: cell-based. As to conditions: spore suspension in YBA liquid medium, 22° C., 5-6 days, OD at 405 nm, read-out: control compared to the untreated check. The protocol: Yeast bacterial peptone and sodium acetate (YBA) liquid medium containing a BOTRCI (10^4 spores/ml) spore suspension was prepared. For the inhibition assay, each test compound was solved in dimethyl sulfoxide. 100 μl of the test compound in media-solution was added to a 96-well microtiter plate, consequently, the same volume (100 μl) of spore suspension was added to the well making the final test concentrations and the plate was incubated at 22° C. for 5-6 days. The growth inhibition was evaluated by measuring the OD at 405 nm. Percent inhibition was calculated with the below formula:
Where T=treatment, C=control, and B=blank

For experiment [3], the system named is Pyricularia oryzae. As to the kind of experiment: microbe, parasite or virus in culture. Format: cell-based. As to conditions: 168 h, read-out: control compared to the untreated check.
Experiment [4] relates to Phytophthora infestans. As to the kind of experiment: microbe, parasite or virus in culture. Type of experiment: cell-based. As to conditions: 168 h, read-out: control compared to the untreated check.
For experiment [5], the system named is Parastagonospora nodorum. As to the kind of experiment: Parastagonospora nodorum (PARANO) spore growth inhibition in liquid medium, 96-well microtiter plate, OD 600. Type of experiment: cell-based. The following applies: spore suspension in PDB liquid medium, 18° C., 5-6 days, OD at 600, read-out: control compared to the untreated check. The protocol: Potato dextrose (PDB) liquid medium (Difco) containing a PARANO (10^5 spores/ml) spore suspension was prepared. For the inhibition assay, each test compound was solved in dimethyl sulfoxide. 100 μl of the test compound in media-solution was added to a 96-well microtiter plate, consequently, the same volume (100 μl) of spore suspension was added to the well making the final test concentrations and the plate was incubated at 18° C. for 5-6 days. The growth inhibition was evaluated by measuring the OD at 600. Percent inhibition was calculated with the below formula: […]

In experiment [6] the test system is Botrytis cinerea. Briefly: Botrytis cinerea test on tomato, preventive, greenhouse. Type of experiment: in vivo. The following applies: preventive spray on bean/chili plants (heading: tomato), inoculated one day after treatment, read-out: control (efficacy, disease severity) compared to the untreated check.
For experiment [7], the system named is Phakopsora pachyrhizi. Briefly: Phakopsora pachyrhizi test on soybean, preventive, greenhouse. Format: in vivo. The following applies: preventive spray on soybean, inoculated one day after treatment, read-out: control (efficacy, disease severity) compared to the untreated check. Here is the method: The respective compound was dissolved in 2% dimethyl sulfoxide/acetone and then mixed with water containing emulsifier to the calibrated spray volume of 30 mL. Each spray solution was poured into a spray bottle for further application.
To test the preventive activity of a compound, healthy young soybean plants, raised in the greenhouse, were sprayed with the active compound preparation at the stated application rate inside the spray cabinets using hollow cone nozzles. One day after treatment, the plants were inoculated with a conidial suspension containing 2×10^5 Phakopsora pachyrhizi inoculum. The inoculated plants were then kept in a greenhouse chamber at 22-24° C. temperature and 80-90% relative humidity for disease expression.

On to `Cn1ccc2cc(C(=O)NC(C)(C)Cc3ccc(F)cc3F)cnc21` [Compound 20], for which the inhibition of growth at 300 ppm in experiment [1], in experiment [2] and in experiment [3] was no less than 70% in each case.

For `Cn1cc(Br)c2cc(C(=O)NC(C)(C)COCc3ccccc3C#N)cnc21` [Compound 196], the inhibition of growth at 300 ppm in experiment [4] was no less than 70%.

Regarding `CON(C(=O)c1cnc2c(ccn2C)c1)C(C)Cc1ccccc1F` (stereo not shown) [Compound 239, N-(1-(2-fluorophenyl)propan-2-yl)-N-methoxy-1-methyl-1H-pyrrolo[2,3-b]pyridine-5-carboxamide], the inhibition of growth at 300 ppm in experiment [5], in experiment [2] and in experiment [3] was no less than 70% throughout.

Turning to `Cn1cc(Cl)c2cc(C(=O)NC(C)(C)COc3ccccn3)cnc21` [Compound 219, 3-chloro-1-methyl-N-(2-methyl-1-(pyridin-2-yloxy)propan-2-yl)-1H-pyrrolo[2,3-b] pyridine-5-carboxamide], the inhibition of growth at 300 ppm in experiment [2] and in experiment [3] was no less than 70% each time.

Consider `CC(C)(COC(=O)c1cccc(F)c1)NC(=O)c1cnc2cc[nH]c2c1` [Compound 156, 2-methyl-2-(1H-pyrrolo[3,2-b]pyridine-6-carboxamido)propyl 3-fluorobenzoate], for which the inhibition of growth at 300 ppm in experiment [4] was no less than 70%.

`CC(c1ccccc1)C(C)(C)NC(=O)c1cnc2c(ccn2C)c1` (stereo not shown) [Compound 8, 1-methyl-N-(2-methyl-3-phenylbutan-2-yl)-1H-pyrrolo[2,3-b] pyridine-5-carboxamide]: the inhibition of growth at 300 ppm in experiment [1], in experiment [5], in experiment [2] and in experiment [3] was no less than 70% in each case.

On to `COc1cc(C(O)C(C)(C)NC(=O)c2cnc3c(ccn3C)c2)ccc1F` (stereo not shown) [Compound 123, N-(1-(4-fluoro-3-methoxyphenyl)-1-hydroxy-2-methylpropan-2-yl)-1-methyl-1H-pyrrolo[2,3-b]pyridine-5-carboxamide], for which, in experiment [4], the inhibition of growth at 300 ppm was no less than 70%.

Consider `COc1cc(C(=O)OCC(C)(C)NC(=O)c2cnc3ccsc3c2)ccc1F` [Compound 124, 2-methyl-2-(thieno[3,2-b]pyridine-6-carboxamido)propyl 4-fluoro-3-methoxybenzoate], for which the pest or weed control at 500 ppm in experiment [6] is no less than 70%. In addition, the inhibition of growth at 300 ppm in experiment [5] and in experiment [3] was no less than 70% in each case.

As to `CC(C)(COC(=O)c1ccccc1C(F)(F)F)NC(=O)c1cnc2c(c1)CCCC2` [Compound 150, 2-methyl-2-(5,6,7,8-tetrahydroquinoline-3-carboxamido)propyl 2-(trifluoromethyl)benzoate], the pest or weed control at 500 ppm in experiment [6] and in experiment [7] was no less than 70% each time. The inhibition of growth at 300 ppm in experiment [5] is no less than 70%.

As to `Cn1cc(Br)c2cc(C(=O)NC(C)(C)COCc3cc(F)ccc3Cl)cnc21` [Compound 232, 3-bromo-N-(1-((2-chloro-5-fluorobenzyl)oxy)-2-methylpropan-2-yl)-1-methyl-1H-pyrrolo[2,3-b]pyridine-5-carboxamide], the inhibition of growth at 300 ppm in experiment [5] and in experiment [2] was no less than 70% throughout.

`CC(C)(COc1ccc(F)cn1)NC(=O)c1cnc2c(c1)CCC2` [Compound 233, N-(1-((5-fluoropyridin-2-yl)oxy)-2-methylpropan-2-yl)-6,7-dihydro-5H-cyclopenta[b]pyridine-3-carboxamide]: in experiment [4], the inhibition of growth at 300 ppm was no less than 70%.

On to `C=C(C)CC(C)(COc1ccc(F)cc1)NC(=O)c1cnc2ccsc2c1` (stereo not shown) [Compound 122, N-(1-(4-fluorophenoxy)-2,4-dimethylpent-4-en-2-yl)thieno[3,2-b] pyridine-6-carboxamide], for which the inhibition of growth at 300 ppm in experiment [1] is no less than 70%. In experiment [6], the pest or weed control at 500 ppm was no less than 70%.

Turning to `CC(C)(CO)NC(=O)c1cnc2ccsc2c1` [Compound 111, N-(1-hydroxy-2-methylpropan-2-yl)thieno[3,2-b] pyridine-6-carboxamide], the inhibition of growth at 300 ppm in experiment [4] is no less than 70%.

Regarding `Cc1cccc(CC(NC(=O)c2cnc3ccsc3c2)C(C)(C)O)c1` (stereo not shown) [Compound 114, N-(3-hydroxy-3-methyl-1-(m-tolyl)butan-2-yl)thieno[3,2-b] pyridine-6-carboxamide], the inhibition of growth at 300 ppm in experiment [4] is no less than 70%.

Regarding `CC(C)(COc1ccccn1)NC(=O)c1cc2c(nc1Cl)CCC2` [Compound 242, 2-chloro-N-(2-methyl-1-(pyridin-2-yloxy)propan-2-yl)-6,7-dihydro-5H-cyclopenta[b]pyridine-3-carboxamide], the inhibition of growth at 300 ppm in experiment [2] was no less than 70%.

For `CC(C)(COc1ccnc(Cl)c1)NC(=O)c1cc2c(nc1Cl)CCC2` [Compound 244, 2-chloro-N-(1-((2-chloropyridin-4-yl)oxy)-2-methylpropan-2-yl)-6,7-dihydro-5H-cyclopenta[b]pyridine-3-carboxamide], the inhibition of growth at 300 ppm in experiment [5] and in experiment [2] was no less than 70% in each case.

Regarding `Cn1cc(Br)c2cc(C(=O)NC(C)(C)Cc3ccccc3)cnc21` [Compound 46], the pest or weed control at 500 ppm in experiment [6] and in experiment [7] was no less than 70% in each case. Also, the inhibition of growth at 300 ppm in experiment [3] is no less than 70%.

Turning to `COc1nc2c(ccn2C)cc1C(=O)NC(C)(C)Cc1ccccc1` [Compound 91, 6-methoxy-1-methyl-N-(2-methyl-1-phenylpropan-2-yl)-1H-pyrrolo[2,3-b] pyridine-5-carboxamide], the inhibition of growth at 300 ppm in experiment [4] was no less than 70%.

Regarding `COc1nc2c(cc1C(=O)NCC1(c3ccccc3)CC1)CCC2` [Compound 247, 2-methoxy-N-((1-phenylcyclopropyl)methyl)-6,7-dihydro-5H-cyclopenta[b]pyridine-3-carboxamide], the inhibition of growth at 300 ppm in experiment [1], in experiment [5] and in experiment [2] was no less than 70% in each case.

On to `Cn1cc(Br)c2cc(C(=O)NC(C)(C)COc3ccc(F)cn3)cnc21` [Compound 216, 3-bromo-N-(1-((5-fluoropyridin-2-yl)oxy)-2-methylpropan-2-yl)-1-methyl-1H-pyrrolo[2,3-b]pyridine-5-carboxamide], for which the inhibition of growth at 300 ppm in experiment [4] was no less than 70%.

On to `Cc1ccc(COCC(C)(C)NC(=O)c2cnc3c(c2)c(Br)cn3C)c(C)c1` [Compound 201, 3-bromo-N-(1-((2,4-dimethylbenzyl)oxy)-2-methylpropan-2-yl)-1-methyl-1H-pyrrolo[2,3-b]pyridine-5-carboxamide], for which the inhibition of growth at 300 ppm in experiment [4] is no less than 70%.

For `CC(CCc1ccccc1)NC(=O)c1cc2c(nc1Cl)CCC2` (stereo not shown) [Compound 250, 2-chloro-N-(4-phenylbutan-2-yl)-6,7-dihydro-5H-cyclopenta[b]pyridine-3-carboxamide], in experiment [4], the inhibition of growth at 300 ppm is no less than 70%.

Consider `O=C(NC1(Cc2ccccc2)CC1)c1cc2c(nc1Cl)CCC2` [Compound 246, N-(1-benzylcyclopropyl)-2-chloro-6,7-dihydro-5H-cyclopenta[b]pyridine-3-carboxamide], for which the inhibition of growth at 300 ppm in experiment [4] is no less than 70%.

As to `CC(C)(COc1ccc(F)cn1)NC(=O)c1cnc2ccsc2c1` [Compound 207, N-(1-((5-fluoropyridin-2-yl)oxy)-2-methylpropan-2-yl)thieno[3,2-b] pyridine-6-carboxamide], the inhibition of growth at 300 ppm in experiment [4] is no less than 70%.

On to `Cn1cc(F)c2cc(C(=O)NC(C)(C)Cc3ccc(Cl)cc3)cnc21` [Compound 66, N-(1-(4-chlorophenyl)-2-methylpropan-2-yl)-3-fluoro-1-methyl-1H-pyrrolo[2,3-b]pyridine-5-carboxamide], for which the pest or weed control at 500 ppm in experiment [6] and in experiment [7] was no less than 70% each time.

In the case of `Cn1cc(Cl)c2cc(C(=O)NC(C)(C)COc3ccc(F)cn3)cnc21` [Compound 221, 3-chloro-N-(1-((5-fluoropyridin-2-yl)oxy)-2-methylpropan-2-yl)-1-methyl-1H-pyrrolo[2,3-b]pyridine-5-carboxamide], the inhibition of growth at 300 ppm in experiment [2] was no less than 70%.
